The subject of one assay is mouse and human ES cells. The experiment in a line: Attempt to repeat reported effects of GSK3 inhibitor on ES cells (Sato et al). In kind it is cell-based. Particulars: attempted repeat of published results. The text has this:
Sato N, et al, Nat. Med. 2004, January 10(1) pp 55-63 describe the effects of a Glycogen Synthase Kinase 3 (GSK3) inhibitor, 6-bromoindirubin-3′-oxime, on mouse and human ES cells in serum containing medium. These effects, however, were observed only over a very short time frame, too short for firm conclusions to be drawn, and the influence of unknown factors in the undefined media used in that study may be significant.
Instead, ES cells died or differentiated in GSK-3β inhibitors alone.

The next assay relates to mouse ES cells. Kind of assay: Self-renewal culture of mouse ES cells with GSK3 inhibitor and gp130 signalling (LIF). The assay is classed as cell-based. Particulars: for promotion of self renewal of ES cells: GSK3 inhibitor used in ES cell culture. As to the method: (§1) Mouse and human ES cells were grown under various conditions, using N2B27 medium unless otherwise stated and in the presence or absence of the GSK-3β inhibitors CHIR99021, AR-AO144-18, SB216763 and SB415286.
N2 100× stock solution. For 10 ml: mix 1 ml insulin (final concentration 2.5 mg/ml) with 1 ml apo-transferrin (final concentration 10 mg/ml), 0.67 ml BSA (final concentration 5 mg/ml), 33 μl progesterone (final concentration […]), 100 μl putrescine (final concentration 1.6 mg/ml), 10 μl sodium selenite (final concentration 3 μM) and 7.187 ml DMEM/F12. Store at 4° C. and use within 1 month.
DMEM/F12-N2 medium: to 100 ml of DMEM/F12, add 1 ml of N2 100× stock solution. The final concentration of each component of N2 in the DMEM/F12 medium is: insulin, 25 μg/ml; apo-transferrin, 100 μg/ml; progesterone, 6 ng/ml; putrescine, 16 μg/ml; sodium selenite, 30 nM; BSA 50 μg/ml. Store at 4° C. and use within 1 month.
Neurolbasal/B27 medium: to 100 ml of Neurolbasal™ Medium, add 2 ml of B27 and 0.5-1 ml of 200 mM L-glutamine. Store at 4° C. and use within 1 month.
(§2) N2B27 medium: mix DMEM/F12-N2 medium with Neurolbasal/B27 medium in the ratio of 1:1. Add β-mercaptoethanol to a final concentration of 0.1 mM from the 0.1M stock. Store at 4° C. and use within 1 month.

The next assay concerns GSK3. The following applies: cited from earlier work.
Assay [1] deals with human ES cells. Kind of assay: Human ES cell self-renewal in N2B27 medium on feeder cells. The assay is classed as cell-based. How it is done: as §2
a) N2B27 medium with bFGF (10 ng/ml) and grown on feeder cells (HS27 human foreskin fibroblasts); and b) the same as a) but adding BMP4 (5 ng/ml) and LIF (10 ng/ml) as well as bFGF.

Assay [2] has as its system human ES cells. The experiment in a line: Feeder-free, conditioned medium-free culture of human ES cells after forced expression of an Eras gene. In kind it is cell-based. As to the method: as §1, §2
a) in N2B27 medium with bFGF, grown on laminin, fibronectin, vitronectin or matrigel; b) the same as a) but adding BMP4 (5 ng/ml) as well as bFGF; and c) the same as a) but adding a GSK-3β inhibitor as well as bFGF.

Where [3] appears, read: N2B27, feeder cells, BMP4 (5 ng/ml) and LIF (10 ng/ml) added as well as bFGF.

As to `O=C1Nc2cc(Br)ccc2/C1=C1/Nc2ccccc2/C1=N\O` [6-bromoindirubin-3′-oxime], the “effects on mouse and human ES cells versus those described by Sato et al” value in the assay with mouse and human ES cells is listed as “effects opposite to those described”.

In the case of `COc1ccc(CNC(=O)Nc2ncc([N+](=O)[O-])s2)cc1` [AR-AO144-18], the “promotion of self renewal of ES cells” value with mouse ES cells is “promote self renewal of ES cells”. Consider `Cc1c[nH]c(-c2cnc(NCCNc3ccc(C#N)cn3)nc2-c2ccc(Cl)cc2Cl)n1` [CHIR 99021], for which the “specificity for GSK3” value in the assay with GSK3 is recorded as “specific for GSK3”. In the assay on mouse ES cells, the “overall result of use in ES cell culture” value is on record as “Good results” and the “promotion of self renewal of ES cells” value was “promote self renewal of ES cells”. For the same molecule, in the assay with mouse ES cells (LIF+CHIR99021 with serum), the “E14.1A ES cells weaned off feeder cells (FIG. 1)” value is “weaned off feeder cells and grown”. In addition, the “self renewal of mouse ES cells” value in the assay on mouse ES cells (combination with LIF in a serum-free, fully defined medium) was “improved self renewal of mouse ES cells with very little differentiation”. Regarding `Cn1cc(C2=C(c3ccc(Cl)cc3Cl)C(=O)NC2=O)c2ccccc21` [SB216763], the “promotion of self renewal of ES cells” value in the assay on mouse ES cells is recorded as “promote self renewal of ES cells”. As to `O=C1NC(=O)C(c2ccccc2[N+](=O)[O-])=C1Nc1ccc(O)c(Cl)c1` [SB415286], the “promotion of self renewal of ES cells” value with mouse ES cells was “promote self renewal of ES cells”.

Turning to CHIR 98014, the “specificity for GSK3” value with GSK3 is listed as “specific for GSK3”. Moreover, in the assay on mouse ES cells, the “overall result of use in ES cell culture” value was “Good results” and the “promotion of self renewal of ES cells” value was “promote self renewal of ES cells”.

LIF: gp130 receptor binding cytokine: the “sustaining human ES cell self-renewal” value in the assay with human ES cells [1] (setting [3]) is listed as “could sustain human ES cell self-renewal”. bFGF: FGF receptor agonist: the “sustaining human ES cell self-renewal” value in the assay on human ES cells [1] (N2B27 medium with bFGF (10 ng/ml), on HS27 human foreskin fibroblast feeder cells) was “could sustain human ES cell self-renewal”. Moreover, the “growth of human ES cells in feeder-free, conditioned medium-free conditions” value in the assay with human ES cells [2] (N2B27 with bFGF, on laminin, fibronectin, vitronectin or matrigel) is “grew in feeder-free and conditioned medium-free conditions”.

B1: BMP4: agonist of the TGF-β superfamily (protein, UniProt P12644 293-408, looked up)
Bone morphogenetic protein 4: SPKHHSQRARKKNKNCRRHSLYVDFSDVGWNDWIVAPPGYQAFYCHGDCPFPLADHLNSTNHAIVQTLVNSVNSSIPKACCVPTELSAISMLYLDEYDKVVLKNYQEMVVEGCGCR
For B1, in the assay on human ES cells [1] (setting [3]), the “sustaining human ES cell self-renewal” value was “could sustain human ES cell self-renewal”. In the assay with human ES cells [2] (N2B27 with BMP4 (5 ng/ml) as well as bFGF), the “growth of human ES cells in feeder-free, conditioned medium-free conditions” value was “grew in feeder-free and conditioned medium-free conditions”.

The record behind these values is US20090130759A1, “Culture Medium Containing Kinase Inhibitor, and Use Thereof” (The University Court of the University of Edinburgh, priority 2005, published 2009).
